Laboratory results from patent US20180171411A1, “GFRalpha1 AS A BIOMARKER FOR CISPLATIN-INDUCED CHEMORESISTANCE AND METASTASIS” (THE BOARD OF REGENTS OF THE UNIVERSITY OF TEXAS SYSTEM, priority 2015, published 2018).
Peptide text beside a SMILES is read from it. * marks the point of attachment. Cbz = O=C(OCc1ccccc1)*; CH2F = FC*

Legend:
Type in all cases: cell-based, human
[1] = system: LC3-II in GFRα1-overexpressing MG-63 cells; experiment: Immunoblot of LC3-II in GFRα1-overexpressing cells; conditions: 3-MA (10 μM) or Baf (100 nM)
Procedure: FIG. 3. GFRα1-induced autophagy enhances the chemoresistance of osteosarcoma cells induced by cisplatin. (a) Control and GFRα1-deficient MG-63 cells were transiently transfected with a mRFP-GFP tandem fluorescent-tagged LC3 (mRFP-GFP-LC3) vector and then treated with cisplatin (20μM) for 24 hr. Left, representative images of RFP-LC3 and GFP-LC3 puncta. Scale bar, 20 μm. Right, quantitative analysis of the number of yellow puncta and the number of RFP-LC3 puncta in the combined images. The values are represented as a mean±s.d.m. (n=3). ** denotes p<0.05 by t-test. (b) Control and GFRα1-deficient MG-63 cells were treated with cisplatin (20 μM) for 24 hr and then stained with acridine orange. […] Bottom, quantitative analysis of the number of AVOs. […] (c) Control and GFRα1-deficient MG-63 cells were treated with cisplatin (20 μM) for 24 hr and then analyzed by TEM. Top, representative images of autophagic vacuoles (yellow arrows) detected after cisplatin treatment in control MG-63 cells. […] Bottom, quantitative analysis of the number of autophagic vacuoles. […] (e) Quantitative analysis of the number of yellow puncta and the number of RFP-LC3 puncta in control and GFRα1-overexpressing MG-63 cells. […] Bottom, quantitative analysis of the number of AVOs. […] (h) Control and GFRα1-overexpressing MG-63 cells were treated with cisplatin (20 μM) for 24 hr and then analyzed by TEM. […]

[2] = system: GFRα1-overexpressing MG-63 clone #4; experiment: Colony-forming assay in the presence of cisplatin; conditions: cisplatin 20 μM 10 days; 3-MA (10 μM), Baf (100 nM), CQ (30 μg/ml)
From the text: FIG. 3. […] Scale bar, 20 μm. […] Scale bar, 20 μm. […] Scale bar, 20 μm.

[3] = system: GFRα1-overexpressing MG-63 cells; experiment: WST-1 cell viability of GFRα1-overexpressing osteosarcoma cells; conditions: with DMSO, 3-MA or Baf, then cisplatin 20 μM 24 hr
Procedure: FIG. 3. GFRα1-induced autophagy enhances the chemoresistance of osteosarcoma cells induced by cisplatin. (a) Control and GFRα1-deficient MG-63 cells were transiently transfected with a mRFP-GFP tandem fluorescent-tagged LC3 (mRFP-GFP-LC3) vector and then treated with cisplatin (20μM) for 24 hr. Left, representative images of RFP-LC3 and GFP-LC3 puncta. Scale bar, 20 μm. Right, quantitative analysis of the number of yellow puncta and the number of RFP-LC3 puncta in the combined images. The values are represented as a mean±s.d.m. (n=3). ** denotes p<0.05 by t-test. (b) Control and GFRα1-deficient MG-63 cells were treated with cisplatin (20 μM) for 24 hr and then stained with acridine orange. Top, representative images of cells stained with acridine orange. Scale bar, 20 μm. Bottom, quantitative analysis of the number of AVOs. The values are represented as a mean±s.d.m. (n=3). ** denotes p<0.05 by t-test. (c) Control and GFRα1-deficient MG-63 cells were treated with cisplatin (20 μM) for 24 hr and then analyzed by TEM. Top, representative images of autophagic vacuoles (yellow arrows) detected after cisplatin treatment in control MG-63 cells. Scale bar, 100 nm. Bottom, quantitative analysis of the number of autophagic vacuoles. The values are represented as a mean±s.d.m. (n=3). ** denotes p<0.05 by t-test. (d) Immunoblot analysis of control and GFRα1-overexpressing osteosarcoma cell lysates with antibodies specific for GFRα1, LC3 and β-actin. […] (e) Quantitative analysis of the number of yellow puncta and the number of RFP-LC3 puncta in control and GFRα1-overexpressing MG-63 cells. […] Bottom, quantitative analysis of the number of AVOs. […] (h) Control and GFRα1-overexpressing MG-63 cells were treated with cisplatin (20 μM) for 24 hr and then analyzed by TEM. Top, representative images of autophagic vacuoles detected after cisplatin treatment in control and GFRα1-overexpressing MG-63 cells. […] Bottom, quantitative analysis of the number of autophagic vacuoles. […] Cell viability was measured using the WST-1 assay. […] Cell viability was measured using the WST-1 assay. […]

[4] = system: Caspase-3 activity in control and GFRα1-deficient MG-63 cells; experiment: Caspase-3 activity (Colorimetric CaspACE assay); conditions: cisplatin 20 μM 24 hr, ZVAD-FMK 50 μM
From the text: FIG. 2. GFRα1 suppresses the chemosensitivity of osteosarcoma cells induced by cisplatin. (a) Generation of GFRα1-deficient osteosarcoma cell lines with GFRα1 shRNA. Both MG-63 and U-2 OS cells were transfected with control or GFRα1 shRNA. Immunoblot analysis of control and GFRα1-deficient stable osteosarcoma cell lysates with antibodies specific for GFRα1 and β-actin. (b) Cell viability of GFRα1-deficient osteosarcoma cells after cisplatin treatment. Control or GFRα1-deficient cells were cultured and treated with different concentrations of cisplatin for 24 hr. Cell viability was measured using the WST-1 assay. The values are represented as a mean±s.d.m. (n=3). ** denotes p<0.05 by t-test. (c) Apoptotic response of GFRα1-deficient osteosarcoma cells after cisplatin treatment. […] Apoptotic cells by FITC-Annexin V staining (top) and viable cells by PI staining (bottom) were analyzed through flow cytometry. […] Cell viability was measured using the WST-1 assay. […] Apoptotic cells by FITC-Annexin V staining (top) and viable cells by PI staining (bottom) were analyzed through flow cytometry. […]
Apoptosis Assays. […] Apoptotic cells were analyzed using a FACSCalibur flow cytometer with CellQuest software (Becton Dickinson, Franklin Lakes, N.J.). […] Caspase 3 activity was analyzed by the Colorimetric CaspACE™ Assay System (Promega, Madison, Wis.) according the manufacturer's instructions. […]

Row | SMILES | level of LC3-II expression [1] | number of colonies [2] | increase of cell proliferation in GFRα1 overexpressing cells [3] | Caspase-3 activity increase in cisplatin-treated GFRα1-deficient MG-63 cells [4]
1 | CO/C1=C\C(C)=C\[C@@H](C)[C@@H](O)[C@@H](C)C/C(C)=C/C=C/[C@H](OC)[C@@H]([C@@H](C)[C@@H](O)[C@H](C)[C@@]2(O)C[C@@H](O)[C@H](C)[C@@H](C(C)C)O2)OC1=O [Baf, bafilomycin A1] | increased | effectively reduced | not | 
2 | COC(=O)C[C@H](NC(=O)[C@H](C)NC(=O)[C@@H](NC(=O)OCc1ccccc1)C(C)C)C(=O)CF [ZVAD-FMK] (Cbz-Val-Ala-Asp(OMe)-CH2F) |  |  |  | reversed this effect
